In patent publication US4252808A, “β-Lactam antibacterial agents, their use in pharmaceutical compositions, the process for their preparation and intermediates for use in that process” (Beecham Group Limited, priority 1978, dated 1981):
≈ marks a conversion by molar mass, not a printed value. Counter-ions that a name gives are not always drawn.

Experiments:
Format in all cases: cell-based
[1] = tested on: P. morganii; assay: MIC, serial dilution in nutrient agar with 5% horse blood (Table 1); conditions: Morganella morganii, inoculum 0.001 ml undiluted broth culture
Procedure: (§1) | *Serial dilution in nutrient agar containing 5% horse blood, inoculum | 0.001 ml undiluted broth culture.

[2] = tested on: E. cloacae Nl; assay: as above; conditions: Enterobacter cloacae, inoculum 0.001 ml undiluted broth culture
Procedure: as §1

[3] = tested on: B. subtilis; assay: as above; conditions: Bacillus subtilis, inoculum 0.001 ml undiluted broth culture
Procedure: as §1

[4] = tested on: S. faecalis 1; assay: as above; conditions: Enterococcus faecalis, inoculum 0.001 ml undiluted broth culture
Procedure: as §1

[5] = tested on: K. aerogenes A; assay: as above; conditions: Klebsiella aerogenes, inoculum 0.001 ml undiluted broth culture
Procedure: as §1

[6] = tested on: P. rettgeri; assay: as above; conditions: Providencia rettgeri, inoculum 0.001 ml undiluted broth culture
Procedure: as §1

[7] = tested on: E. coli JT 4; assay: as above; conditions: Escherichia coli, JT4, inoculum 0.001 ml undiluted broth culture
Procedure: as §1

[8] = tested on: S. aureus Oxford; assay: as above; conditions: Staphylococcus aureus, inoculum 0.001 ml undiluted broth culture
Procedure: as §1

[9] = tested on: S. aureus Russell; assay: as above; conditions: Staphylococcus aureus, inoculum 0.001 ml undiluted broth culture
Procedure: as §1

[10] = tested on: P. mirabilis C 977; assay: as above; conditions: Proteus mirabilis, C977, inoculum 0.001 ml undiluted broth culture
Procedure: as §1

[11] = tested on: S. aureus 1517; assay: as above; conditions: Staphylococcus aureus, inoculum 0.001 ml undiluted broth culture
Procedure: as §1

[12] = tested on: S. pyogenes CN 10; assay: as above; conditions: Streptococcus pyogenes, CN10, inoculum 0.001 ml undiluted broth culture
Procedure: as §1

[13] = tested on: E. cloacae Nl; assay: MIC, serial dilution in DST agar with 10% horse blood (Table 2); conditions: Enterobacter cloacae, inoculum diluted 10^-4
Source text: (§2) *Serial dilution in DST agar containing 10% horse blood, inoculum 0.001 m
(§3) broth culture diluted 10^-2 for Grampositive and 10^-4 for
(§4) Gramnegative organisms.

[14] = tested on: P. morganii 1580; assay: as above; conditions: Morganella morganii, inoculum diluted 10^-4
Source text: as §2, §3, §4

[15] = tested on: S. pyogenes CN 10; assay: as above; conditions: Streptococcus pyogenes, CN10, inoculum diluted 10^-2
Source text: as §2, §3, §4

[16] = tested on: B. subtilis; assay: as above; conditions: Bacillus subtilis, inoculum diluted 10^-2
Source text: as §2, §3, §4

[17] = tested on: S. aureues Russell; assay: as above; conditions: Staphylococcus aureus, inoculum diluted 10^-2
Source text: as §2, §3, §4

[18] = tested on: E. coli 0111; assay: as above; conditions: Escherichia coli, inoculum diluted 10^-4
Source text: as §2, §3, §4

[19] = tested on: S. faecalis 1; assay: as above; conditions: Enterococcus faecalis, inoculum diluted 10^-2
Source text: as §2, §3, §4

[20] = tested on: K. aerogenes A; assay: as above; conditions: Klebsiella aerogenes, inoculum diluted 10^-4
Source text: as §2, §3, §4

[21] = tested on: S. pneumoniae CN 33; assay: as above; conditions: Streptococcus pneumoniae, CN33, inoculum diluted 10^-2
Source text: as §2, §3, §4

[22] = tested on: P. mirabilis C 977; assay: as above; conditions: Proteus mirabilis, C977, inoculum diluted 10^-4
Source text: as §2, §3, §4

[23] = tested on: P. rettgeri WM 16; assay: as above; conditions: Providencia rettgeri, WM16, inoculum diluted 10^-4
Source text: as §2, §3, §4

[24] = tested on: S. aureus 1517; assay: as above; conditions: Staphylococcus aureus, inoculum diluted 10^-2
Source text: as §2, §3, §4

[25] = tested on: S. aureus Oxford; assay: as above; conditions: Staphylococcus aureus, inoculum diluted 10^-2
Source text: as §2, §3, §4

CC1=C(C(=O)O)N2C(=O)[C@@H](NC(=O)[C@H](O)c3ccccc3)[C@H]2n2nncc21 [Compound 42, (3aR,4S) 4,5-Dihydro-5-oxo-8-methyl-4-D-mandelylamino-3aH-azeto[1,2-a]v-triazolo[3,4-c]pyrimidine-7-carboxylic acid]
MIC [1]: 100 µg/mL (≈ 271 µM)
MIC [2]: > 100 µg/mL
MIC [3]: 1 µg/mL (≈ 2.71 µM)
MIC [4]: > 100 µg/mL
MIC [5]: > 100 µg/mL
MIC [6]: > 100 µg/mL
MIC [7]: > 100 µg/mL
MIC [8]: 25 µg/mL (≈ 67.7 µM)
MIC [9]: > 100 µg/mL
MIC [10]: > 100 µg/mL
MIC [11]: > 100 µg/mL

CC1=C(C(=O)O)N2C(=O)[C@@H](NC(=O)[C@H](N)c3ccccc3)[C@H]2n2nncc21 [Compound 46, (3aR,4S)-4,5-Dihydro-5-oxo-8-methyl-4-D-α-phenylglycylamino-3aH-azeto[1,2-a]v-triazolo[3,4-c]pyrimidine-7-carboxylic acid trifluoroacetic acid salt]
MIC [1]: > 100 µg/mL
MIC [2]: > 100 µg/mL
MIC [3]: 100 µg/mL
MIC [4]: > 100 µg/mL
MIC [5]: > 100 µg/mL
MIC [6]: > 100 µg/mL
MIC [7]: > 100 µg/mL
MIC [8]: > 100 µg/mL
MIC [9]: > 100 µg/mL
MIC [10]: > 100 µg/mL
MIC [11]: > 100 µg/mL

CC1=C(C(=O)O)N2C(=O)[C@@H](NC(=O)Cn3ncnn3)[C@H]2n2nncc21 [Compound 47, (3aR,4S)-4,5-Dihydro-5-oxo-8-methyl-4-(2-tetrazolylacetamido)-3aH-azeto[1,2-a]v-triazolo[3,4-c]pyrimidine-7-carboxylic acid]
MIC [1]: > 100 µg/mL
MIC [2]: > 100 µg/mL
MIC [12]: 1 µg/mL (≈ 2.9 µM)
MIC [3]: 0.5 µg/mL (≈ 1.45 µM)
MIC [4]: 50 µg/mL (≈ 145 µM)
MIC [5]: > 100 µg/mL
MIC [6]: > 100 µg/mL
MIC [7]: > 100 µg/mL
MIC [8]: 2.5 µg/mL (≈ 7.24 µM)
MIC [9]: 5 µg/mL (≈ 14.5 µM)
MIC [10]: > 100 µg/mL
MIC [11]: > 100 µg/mL

CCSCC(=O)NC1C(=O)N2C(C(=O)O)=C(C)c3cnnn3C12 [Compound 48, (3aR,4S)-4,5-Dihydro-5-oxo-8-methyl-4-ethylthioacetamido 3aH-azeto[1,2a]v-triazolo[3,4c]pyrimidine-7-carboxylic acid]
MIC [13]: > 100 µg/mL
MIC [14]: 25 µg/mL (≈ 74.1 µM)
MIC [15]: 0.5 µg/mL (≈ 1.48 µM)
MIC [16]: 0.2 µg/mL (≈ 0.593 µM)
MIC [17]: 5 µg/mL (≈ 14.8 µM)
MIC [18]: 50 µg/mL (≈ 148 µM)
MIC [19]: 25 µg/mL (≈ 74.1 µM)
MIC [20]: 50 µg/mL (≈ 148 µM)
MIC [21]: 1 µg/mL (≈ 2.96 µM)
MIC [22]: 10 µg/mL (≈ 29.6 µM)
MIC [23]: > 100 µg/mL
MIC [24]: 25 µg/mL (≈ 74.1 µM)

CC1=C(C(=O)O)N2C(=O)[C@@H](NC(=O)CC#N)[C@H]2n2nncc21 [Compound 49, (3aR,4S)-4,5-Dihydro-5-oxo-8-methyl-4-cyanoacetamido 3aH-azeto[1,2a]v-triazolo[3,4-c]pyrimidine-7-carboxylic acid]
MIC [13]: > 100 µg/mL
MIC [14]: 100 µg/mL (≈ 331 µM)
MIC [15]: 2.5 µg/mL (≈ 8.27 µM)
MIC [16]: 2.5 µg/mL (≈ 8.27 µM)
MIC [17]: 25 µg/mL (≈ 82.7 µM)
MIC [18]: 100 µg/mL (≈ 331 µM)
MIC [19]: 25 µg/mL (≈ 82.7 µM)
MIC [20]: 100 µg/mL (≈ 331 µM)
MIC [25]: 5 µg/mL (≈ 16.5 µM)
MIC [21]: 5 µg/mL (≈ 16.5 µM)
MIC [22]: 50 µg/mL (≈ 165 µM)
MIC [23]: > 100 µg/mL
MIC [24]: 100 µg/mL (≈ 331 µM)

CO/N=C(\C(=O)N[C@@H]1C(=O)N2C(C(=O)O)=C(C)c3cnnn3[C@H]12)c1ccco1 [Compound 50, (3aR,4R)-4,5-Dihydro-5-oxo-8-methyl-4-[(2-methoxyimino-2-fur-2'-yl)acetamido]-3aH-azeto[1,2-a]v-triazolo[3,4-c]pyrimidine-7-carboxylic acid]
MIC [13]: > 100 µg/mL
MIC [14]: 100 µg/mL (≈ 259 µM)
MIC [15]: 1 µg/mL (≈ 2.59 µM)
MIC [16]: 5 µg/mL (≈ 12.9 µM)
MIC [17]: 25 µg/mL (≈ 64.7 µM)
MIC [18]: 100 µg/mL (≈ 259 µM)
MIC [19]: > 100 µg/mL
MIC [20]: 100 µg/mL (≈ 259 µM)
MIC [21]: 10 µg/mL (≈ 25.9 µM)
MIC [22]: 50 µg/mL (≈ 129 µM)
MIC [23]: > 100 µg/mL
MIC [24]: 100 µg/mL (≈ 259 µM)

CC1=C(C(=O)O)N2C(=O)[C@@H](NC(=O)C(F)(F)F)[C@H]2n2nncc21 [Compound 51, (3aR,4S)-4,5-Dihydro-5-oxo-8-methyl-4-trifluoroacetamido 3aH-azeto[1,2-a]v-triazolo[3,4-c]pyrimidine-7-carboxylic acid]
MIC [13]: > 100 µg/mL
MIC [14]: > 100 µg/mL
MIC [15]: 25 µg/mL (≈ 75.5 µM)
MIC [16]: 5 µg/mL (≈ 15.1 µM)
MIC [17]: > 100 µg/mL
MIC [18]: 100 µg/mL (≈ 302 µM)
MIC [19]: 100 µg/mL (≈ 302 µM)
MIC [20]: > 100 µg/mL
MIC [25]: > 100 µg/mL
MIC [21]: 50 µg/mL (≈ 151 µM)
MIC [22]: > 100 µg/mL
MIC [23]: > 100 µg/mL
MIC [24]: > 100 µg/mL

CC(=O)OCC1=C(C(=O)O)N2C(=O)[C@@H](NC(=O)Cc3cccs3)[C@H]2n2nncc21 [Compound 57, (3aR,4S) 4,5-Dihydro-5-oxo-8-acetoxymethyl-4-(2-thienylacetamido)-3aH-azeto[1,2-a]v-triazolo[3,4-c]pyrimidine-7-carboxylic acid]
MIC [1]: > 100 µg/mL
MIC [2]: > 100 µg/mL
MIC [12]: > 100 µg/mL
MIC [3]: 100 µg/mL (≈ 240 µM)
MIC [4]: > 100 µg/mL
MIC [5]: > 100 µg/mL
MIC [6]: > 100 µg/mL
MIC [7]: > 100 µg/mL
MIC [8]: > 100 µg/mL
MIC [9]: > 100 µg/mL
MIC [10]: > 100 µg/mL
MIC [11]: > 100 µg/mL

Cc1nnc(SCC2=C(C(=O)O)N3C(=O)[C@@H](NC(=O)Cc4cccs4)[C@H]3n3nncc32)s1 [Compound 60, (3aR,4S) 4,5-Dihydro-5-oxo-8-[5-methyl(1,3,4-thiadiazol-2-yl)thiomethyl]-4-(2-thienylacetamido)-3aH-azeto[1,2-a]-v-triazolo[3,4-c]pyrimidine-7-carboxylic acid]
MIC [13]: > 100 µg/mL
MIC [14]: > 100 µg/mL
MIC [15]: 2.5 µg/mL (≈ 5.11 µM)
MIC [16]: 5 µg/mL (≈ 10.2 µM)
MIC [17]: 25 µg/mL (≈ 51.1 µM)
MIC [18]: > 100 µg/mL
MIC [19]: 25 µg/mL (≈ 51.1 µM)
MIC [20]: > 100 µg/mL
MIC [21]: 0.5 µg/mL (≈ 1.02 µM)
MIC [22]: > 100 µg/mL
MIC [23]: > 100 µg/mL
MIC [24]: 100 µg/mL (≈ 204 µM)
MIC [1]: > 100 µg/mL
MIC [2]: > 100 µg/mL
MIC [12]: > 100 µg/mL
MIC [3]: 50 µg/mL (≈ 102 µM)
MIC [4]: > 100 µg/mL
MIC [5]: > 100 µg/mL
MIC [6]: > 100 µg/mL
MIC [7]: > 100 µg/mL
MIC [8]: > 100 µg/mL
MIC [9]: > 100 µg/mL
MIC [10]: > 100 µg/mL
MIC [11]: > 100 µg/mL
